Source: patent publication US10899754B2, “Modulators of indoleamine 2,3-dioxygenase” (GLAXOSMITHKLINE INTELLECTUAL PROPERTY DEVELOPMENT LIMITED, priority 2016, dated 2021)

How the values were obtained:
Type in all cases: cell-based
[1] = test system: human epithelial HeLa cells; test: HeLa cytotoxicity assay (CellTiter-Glo); conditions: pCC50
How it was run: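 Read-out is CellTiter-Glo luminescence after 2 days at 37 °C, on IFN-γ-stimulated (10 nM) HeLa cells seeded at 5,000/well with compounds in 11-point 3-fold dose series. pCC50 from four-parameter curve fit; wells without cells set 100% cytotoxicity, stimulated cells with DMSO set 0%.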

[2] = test system: human peripheral blood mononuclear cells (PBMC); test: PBMC cytotoxicity assay (CellTiter-Glo); conditions: 2 days, pCC50
How it was run: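 % cytotoxicity was taken from CellTiter-Glo luminescence, using wells without cells and stimulated DMSO wells as references, and fitted by four-parameter curve to give XC50. Cells were human PBMC at 50,000 per well, activated with 100 ng/ml IFN-γ plus 50 ng/ml LPS. Incubation with 11-point, 3-fold dilution series ran for 2 days at 37 °C.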

[3] = target: T1, indoleamine 2, 3-dioxygenase (IDO1) (Homo sapiens, UniProt P14902); test: IDO1 HeLa RapidFire MS assay (kynurenine detection by mass spectrometry); parameters: to induce the expression of indoleamine 2, 3-dioxygenase (IDO1); conditions: HeLa cells, pIC50, read-out: IDO1_HELA_PXC50 (converted)
T1 sequence (P14902 whole entry): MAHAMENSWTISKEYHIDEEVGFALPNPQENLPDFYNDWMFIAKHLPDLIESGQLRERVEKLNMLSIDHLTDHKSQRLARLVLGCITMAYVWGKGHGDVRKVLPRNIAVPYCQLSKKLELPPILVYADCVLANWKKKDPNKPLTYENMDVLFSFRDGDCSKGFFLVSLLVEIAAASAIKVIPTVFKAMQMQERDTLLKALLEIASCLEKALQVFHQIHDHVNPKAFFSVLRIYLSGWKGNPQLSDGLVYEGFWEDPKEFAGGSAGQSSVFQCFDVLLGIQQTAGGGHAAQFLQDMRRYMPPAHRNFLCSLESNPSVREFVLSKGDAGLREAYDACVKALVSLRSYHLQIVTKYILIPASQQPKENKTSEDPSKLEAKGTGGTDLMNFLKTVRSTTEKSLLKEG
How it was run: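 Compound potency reported as pIC50 from kynurenine/internal-standard ratio (RapidFire MS) in supernatant of IFN-γ-induced (10 nM) HeLa cells, 5,000 per well, after 2 days' treatment with 11-point dilutions. Cytotoxicity in the same format by luminescent ATP detection, reported as pCC50.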

[4] = target: T1, indoleamine 2, 3-dioxygenase (IDO1); test: IDO1 PBMC RapidFire MS assay (kynurenine detection by mass spectrometry); parameters: to induce the expression of indoleamine 2, 3-dioxygenase (IDO1); host or cells: human PBMC stimulated with IFN-gamma and LPS; conditions: human PBMC stimulated with IFN-γ and LPS, 2 days, pIC50, read-out: PBMC PXC50 (converted)
How it was run: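 Kynurenine output, read by RapidFire mass spectrometry as ratio to an internal standard, was measured after 2-day compound exposure (11-point, 3-fold dilutions) of human PBMCs induced with 100 ng/ml IFN-γ and 50 ng/ml LPS. Cell viability tracked alongside via ATP luminescence; XC50 from curve fitting.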

| Structure (SMILES) | IC50 [3] | IC50 [4] | HELA_IDO1_TOX_PXC50 [1] | PBMC TOX PXC50 [2] |
| --- | --- | --- | --- | --- |
| CC[C@H](CC(=O)O)c1ccc(N(CC(C)C)C2CCCCC2)c(Nc2nc(C(F)(F)F)ns2)c1 [Example 38, (R)-3-(4-(cyclohexyl(isobutyl)amino)-3-((3-(trifluoromethyl)-1,2,4-thiadiazol-5-yl)amino)phenyl)pentanoic Acid] | 2 nM | 0.794 nM | <5 | <5 |
| CC(C)CN(c1ccc([C@H](C)CC(=O)O)cc1Nc1ccc(C(F)(F)F)cn1)C1CCCCC1 [Example 76, (R)-3-(4-(cyclohexyl(isobutyl)amino)-3-((5-(trifluoromethyl)pyridin-2-yl)amino)phenyl)butanoic Acid] | 3.98 nM | 2.51 nM | <5 | <5 |
| CC(C)CN(c1ccc([C@H](C)Cc2nnn[nH]2)cc1Nc1nc(C(F)(F)F)ns1)C1CCCCC1 [Example 101, (R)-4-(1-(1H-tetrazol-5-yl)propan-2-yl)-N^1-cyclohexyl-N^1-isobutyl-N^2-(3-(trifluoromethyl)-1,2,4-thiadiazol-5-yl)benzene-1,2-diamine] | 2.51 nM | 1.58 nM | <5 | <5 |
| CC(C)CN(c1ccc([C@H](C)CC(=O)O)cc1Nc1ccc(Cl)nn1)[C@H]1CC[C@H](O)CC1 [Example 57, (R)-3-(3-((6-chloropyridazin-3-yl)amino)-4-(((1r,4R)-4-hydroxycyclohexyl) (isobutyl)amino)phenyl)butanoic Acid] | 7.94 nM | 5.01 nM | <5 | <5 |
| CC(C)CN(c1ccc(C(C)CC(=O)O)cc1NC1CCC(C)CC1)C1CCCCC1 (centres unmarked) [example 158, 3-{4-[cyclohexyl(2-methylpropyl)amino]-3-[(4-methylcyclohexyl)ami-no]phenyl}butanoic acid] | 1000 nM | 631 nM | <5 | <5 |
| CC(C)CN(CC(C)C)c1ccc(C(C)CC(=O)O)cc1Nc1nc(-c2ccccc2)ns1 (centres unmarked) [example 115, 3-{4-[bis(2-methylpropyl)amino]-3-[(3-phenyl-1,2,4-thiadiazol-5-yl)amino]phenyl}butanoic acid] | 3160 nM | 2000 nM | <4.3 | 4.9 |
| CC(C)CN(c1ccc([C@H](C)CC(=O)O)cc1Nc1ccc(C#N)cn1)C1CCCCC1 [Example 73, (R)-3-(3-((5-cyanopyridin-2-yl)amino)-4-(cyclohexyl(isobutyl)amino)phenyl)butanoic Acid] | 3.98 nM | 0.794 nM | <5 | <5 |
| CC(C)CN(c1ccc(C(C)CC(=O)O)cc1Nc1nc(Cl)ns1)C1CCOCC1 (centres unmarked) [Example 21, 3-(3-((3-chloro-1,2,4-thiadiazol-5-yl)amino)-4-(isobutyl(tetrahydro-2H-pyran-4-yl)amino)phenyl)butanoic Acid] | 31.6 nM | 2.51 nM | <5 | 5.2 |
| CC[C@H](CC(=O)O)c1ccc(N(CC(C)C)CC(C)C)c(Nc2nc(Cl)ns2)c1 [Example 40, (R)-3-(3-((3-chloro-1,2,4-thiadiazol-5-yl)amino)-4-(diisobutylmino)phenyl)pentanoic Acid] | 12.6 nM | 2.51 nM | <5 | <5 |
| CC(C)CN(c1ccc(-c2ccccc2C(=O)O)cc1Nc1nc(C(F)(F)F)ns1)C1CCOCC1 [Example 103, 4′-(isobutyl(tetrahydro-2H-pyran-4-yl)amino)-3′-((3-(trifluoromethyl)-1,2,4-thiadiazol-5-yl)amino)-[1,1′-biphenyl]-2-carboxylic Acid] | 3.16 nM | 1.58 nM | <5 | <5 |
| COCc1nnc(Nc2cc([C@H](C)CC(=O)O)ccc2N(CC(C)C)C2CCCCC2)[nH]1 [Example 82, (R)-3-(4-(cyclohexyl(isobutyl)amino)-3-((5-(methoxymethyl)-4H-1,2,4-triazol-3-yl)amino)phenyl)butanoic Acid] | 15.8 nM | 7.94 nM | <5 | <5 |

Continued, in another order:

| IC50 [3] | IC50 [4] | Structure (SMILES) | HELA_IDO1_TOX_PXC50 [1] | PBMC TOX PXC50 [2] |
| --- | --- | --- | --- | --- |
| 15.8 nM | 6.31 nM | CC(C)CN(c1ccc(-c2ccccc2C(=O)O)cc1Nc1nc(C(F)(F)F)cs1)C1CCCCC1 [example 299, 4′-[cyclohexyl(2-methylpropyl)amino]-3′-{[4-(trifluoromethyl)-1,3-thiazol-2-yl]amino}-[1,1′-biphenyl]-2-carboxylic acid] | <5 | <5 |
| 3.98 nM | 2.51 nM | CC(C)CN(c1ccc([C@@H](C)CC(=O)O)cc1Nc1ccnc(Cl)n1)C1CCCCC1 [example 300] | <5 | <5 |
| 631 nM | 316 nM | CC(C)CN(c1ccc(C(C)CC(=O)O)cc1NC1=NC(=O)[C@H](C)N1)C1CCCCC1 (stereo partly drawn) [example 164, 3-{4-[cyclohexyl(2-methylpropyl)amino]-3-{[(5S)-5-methyl-4-oxo-4,5-dihydro-1H-imidazol-2-yl]amino}phenyl}butanoic acid] | <5 | <5 |
| 251 nM | 39.8 nM | Cc1nnc(Nc2cc(-c3ccccc3C(=O)O)ccc2N(CC(C)C)CC(C)C)s1 [example 298, 4′-[bis(2-methylpropyl)amino]-3′-[(5-methyl-1,3,4-thiadiazol-2-yl)amino]-[1,1′-biphenyl]-2-carboxylic acid] | <5 | <5 |
| 398 nM | 200 nM | COCCN(c1ccc(-c2ccccc2C(=O)O)cc1Nc1nc2ccccc2o1)C1CCCCC1 [example 284, 3′-[(1,3-benzoxazol-2-yl)amino]-4′-[cyclohexyl(2-methoxyethyl)amino]-[1,1′-biphenyl]-2-carboxylic acid] | <5 | <5 |
| 158 nM | 25.1 nM | CC(C)CN(c1ccc(C(C)OCC(=O)O)cc1Nc1nc(Cl)ns1)C1CCCCC1 (centres unmarked) [example 171, 2-(1-{3-[(3-chloro-1,2,4-thiadiazol-5-yl)amino]-4-[cyclohexyl(2-methylpropyl)amino]phenyl}ethoxy)acetic acid] | <5 | <5 |
| 20 nM | 31.6 nM | Cc1nnc(Nc2cc([C@H](C)CC(=O)O)ccc2N(CC(C)C)C2CCOCC2)s1 [example 215, (3R)-3-{3-[(5-methyl-1,3,4-thiadiazol-2-yl)amino]-4-[(2-methylpropyl)(oxan-4-yl)amino]phenyl}butanoic acid] | <5 | <5 |
| 100 nM | 20 nM | CNC(=O)N1CCC(N(CC(C)C)c2ccc([C@H](C)CC(=O)O)cc2Nc2nc(C(F)(F)F)ns2)CC1 [example 262, (3R)-3-(4-{[1-(methylcarbamoyl)piper-idin-4-yl](2-methylpropyl)amino}-3-{[3-(trifluoromethyl)-1,2,4-thiadiazol-5-yl]amino}phenyl)butanoic acid] | <5 | <5 |
| 398 nM | 200 nM | CC(C)CN(c1ccc([C@H](C)CC(=O)O)cc1NC1CCCC(C)(C)C1)C1CCCCC1 (stereo partly drawn) [example 183, (3R)-3-{4-[cyclohexyl(2-methylpropyl)amino]-3-[(3,3-dimethylcyclohexyl)ami-no]phenyl}butanoic acid] | <5 | <5 |
| 200 nM | 63.1 nM | CC(C)CN(c1ccc(-c2ccccc2C(=O)O)cc1Nc1cccc(Cl)n1)C1CCCCC1 [example 266, 3′-[(6-chloropyridin-2-yl)amino]-4′-[cyclohexyl(2-methylpropyl)amino]-[1,1′-biphenyl]-2-carboxylic acid] | <5 | <5 |
| 25.1 nM | 20 nM | CC(C)CN(c1ccc([C@H](C)CC(=O)O)cc1Nc1nc(C2CC2)cs1)C1CCOCC1 [example 211, (3R)-3-{3-[(4-cyclopropyl-1,3-thiazol-2-yl)amino]-4-[(2-methylpropyl)(oxan-4-yl)amino]phenyl}butanoic acid] | <5 | <5 |
| 794 nM | 1580 nM | CC(C)CN(c1ccc(C(C)CC(=O)O)cc1NC1=NC(=O)[C@H](c2ccccc2)N1)C1CCCCC1 (stereo partly drawn) [example 165, 3-{4-[cyclohexyl(2-methylpropyl)amino]-3-{[(5S)-4-oxo-5-phenyl-4,5-dihydro-1H-imidazol-2-yl]amino}phenyl}butanoic acid] | <5 | <5 |
